Experimental data reported in the NIST ThermoML archive (doi:10.1021/acs.jced.9b00187).

Key:
[1] = Liquid; for vapor or sublimation pressure: Closed cell (Static) method; for viscosity: Moving piston method
[2] = xn = mol fraction of the nth substance listed; conditions: Liquid, Moving piston method

O=C=O [carbon dioxide]
[1]
Conditions | vapor or sublimation pressure [kPa]
282.15 K | 4392
287.11 K | 4961
291.84 K | 5555
296.64 K | 6214
301.38 K | 6928

CCCCCCCCCCCC [dodecane]
[1]
Conditions | viscosity [mPa·s]
284.6 K, 670 kPa | 1.75
284.6 K, 2190 kPa | 1.78
284.7 K, 2710 kPa | 1.79
284.7 K, 4240 kPa | 1.82
294 K, 8310 kPa | 1.63
322.3 K, 4240 kPa | 0.98
350.5 K, 690 kPa | 0.66
350.5 K, 4250 kPa | 0.68
350.5 K, 8310 kPa | 0.72
353.1 K, 8320 kPa | 0.69

CCCCCCCCCCCC [dodecane] + O=C=O
[2]
Conditions | viscosity [mPa·s]
283.7 K, 4630 kPa, x2 = 0.8 | 0.353
283.97 K, 4610 kPa, x2 = 0.8 | 0.362
284.33 K, 3710 kPa, x2 = 0.5999 | 0.578
284.41 K, 2630 kPa, x2 = 0.401 | 0.96
284.44 K, 2530 kPa, x2 = 0.401 | 0.972
284.6 K, 1460 kPa, x2 = 0.2009 | 1.227
305.43 K, 5410 kPa, x2 = 0.5999 | 0.487
305.44 K, 5360 kPa, x2 = 0.5999 | 0.498
305.64 K, 1770 kPa, x2 = 0.2009 | 0.865
305.65 K, 3610 kPa, x2 = 0.401 | 0.667
305.69 K, 1730 kPa, x2 = 0.2009 | 0.86
305.82 K, 6880 kPa, x2 = 0.8 | 0.272
328.83 K, 10780 kPa, x2 = 0.8 | 0.236
328.86 K, 7350 kPa, x2 = 0.5999 | 0.373
328.99 K, 4470 kPa, x2 = 0.401 | 0.493
329.3 K, 2050 kPa, x2 = 0.2009 | 0.585
350.19 K, 5510 kPa, x2 = 0.401 | 0.397
350.49 K, 14270 kPa, x2 = 0.8 | 0.208
350.95 K, 9320 kPa, x2 = 0.5999 | 0.305
351.33 K, 2490 kPa, x2 = 0.2009 | 0.437
